According to PubChem BioAssay AID248 (DTP/NCI, 2004):
Values joined by “and” are separate entries in the source; they are usually repeats but may differ in a detail not shown here. Identical values can stand only once. Inconclusive results and toxic doses are left out. No stated cut-off is given here; in the data, active means T/C of 150% or more; inactive means T/C below 125%.

System: L1210 leukemia ip in BDF1 mice, survival T/C
Assay: NCI In Vivo Anticancer Drug Screen. Data for tumor model L1210 Leukemia (intraperitoneal) in B6D2F1 (BDF1) mice
Conditions: endpoint: mean survival time, higher = longer survival
Method in brief: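 Read-out is survival time, reported as the treated-group measurement over the vehicle-control measurement.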

[1] = dose: 100.0 mg/kg/injection, schedule: Q01DX009 (ip), vehicle: saline
[2] = dose: 100.0 mg/kg/injection, schedule: Q04DX003 (ip), vehicle: saline
[3] = dose: 200.0 mg/kg/injection, schedule: Q01DX009 (ip), vehicle: saline
[4] = dose: 200.0 mg/kg/injection, schedule: Q04DX003 (ip), vehicle: saline
[5] = dose: 400.0 mg/kg/injection, schedule: Q01DX009 (ip), vehicle: saline
[6] = dose: 400.0 mg/kg/injection, schedule: Q04DX003 (ip), vehicle: saline
[7] = dose: 100.0 mg/kg/injection, schedule: Q04DX002 (ip), vehicle: Klucel (hydroxypropylcellulose) (HPC)
[8] = dose: 200.0 mg/kg/injection, schedule: Q04DX002 (ip), vehicle: Klucel (hydroxypropylcellulose) (HPC)
[9] = dose: 400.0 mg/kg/injection, schedule: Q04DX002 (ip), vehicle: Klucel (hydroxypropylcellulose) (HPC)
[10] = dose: 100.0 mg/kg/injection, schedule: Q01DX009 (ip), vehicle: Klucel (hydroxypropylcellulose) (HPC)
[11] = dose: 100.0 mg/kg/injection, schedule: Q04DX003 (ip), vehicle: Klucel (hydroxypropylcellulose) (HPC)
[12] = dose: 200.0 mg/kg/injection, schedule: Q01DX009 (ip), vehicle: Klucel (hydroxypropylcellulose) (HPC)
[13] = dose: 200.0 mg/kg/injection, schedule: Q04DX003 (ip), vehicle: Klucel (hydroxypropylcellulose) (HPC)
[14] = dose: 400.0 mg/kg/injection, schedule: Q01DX009 (ip), vehicle: Klucel (hydroxypropylcellulose) (HPC)
[15] = dose: 400.0 mg/kg/injection, schedule: Q04DX003 (ip), vehicle: Klucel (hydroxypropylcellulose) (HPC)

Measured: T/C

Cc1cccn(C(=O)c2ccccc2)c1=N
inactive: dose: 100.0 mg/kg/injection, schedule: Q01DX001 (ip), vehicle: carboxymethylcellulose (CMC) 100 % of control | dose: 200.0 mg/kg/injection, schedule: Q01DX001 (ip), vehicle: carboxymethylcellulose (CMC) 96 % of control | dose: 400.0 mg/kg/injection, schedule: Q01DX001 (ip), vehicle: carboxymethylcellulose (CMC) 102 % of control

COc1ccc(Cl)cc1NC(=O)Nc1ccc(CCO)cc1
inactive: [1] 100 % of control | [2] 113 % of control | [3] 91 % of control | [4] 103 % of control | [5] 93 % of control | [6] 101 % of control

CCN(CC)CC(C)OC(=O)CCN1CC1 (configuration not stated)
inactive: dose: 3.0 mg/kg/injection, schedule: Q01DX009 (ip), vehicle: saline 100 % of control | dose: 6.0 mg/kg/injection, schedule: Q01DX009 (ip), vehicle: saline 106 % of control | dose: 12.0 mg/kg/injection, schedule: Q01DX009 (ip), vehicle: saline 103 % of control | dose: 25.0 mg/kg/injection, schedule: Q01DX009 (ip), vehicle: saline 101 % of control | dose: 25.0 mg/kg/injection, schedule: Q04DX003 (ip), vehicle: saline 108 % of control | dose: 50.0 mg/kg/injection, schedule: Q01DX009 (ip), vehicle: saline 95 % of control | dose: 50.0 mg/kg/injection, schedule: Q04DX003 (ip), vehicle: saline 101 % of control | [2] 97 % of control and 111 % of control | [4] 103 % of control

Cc1cccc(C)c1OC(=O)Nc1ccc(Cl)cc1
inactive: [7] 96 % of control | [8] 110 % of control | [9] 96 % of control

CC(C)(C)NC(=O)CCC1C(NC(=O)C(C)(C)C)C2(Cl)C(Cl)=C(Cl)C1(Cl)C2(Cl)Cl (configuration not stated)
inactive: [10] 90 % of control | [11] 92 % of control | [12] 90 % of control | [13] 92 % of control | [14] 90 % of control | [15] 93 % of control

O=C(O)c1cc(C(F)(F)F)nc2c1ccc1ccccc12
inactive: dose: 75.0 mg/kg/injection, schedule: Q01DX001 (ip), vehicle: saline 98 % of control | dose: 150.0 mg/kg/injection, schedule: Q01DX001 (ip), vehicle: saline 98 % of control

O=[N+]([O-])c1cccc(S(=O)(=O)Oc2ccc(-c3ccccc3)cc2)c1
inactive: dose: 100.0 mg/kg/injection, schedule: Q04DX003 (ip), vehicle: saline with Tween-80 96 % of control | dose: 200.0 mg/kg/injection, schedule: Q04DX003 (ip), vehicle: saline with Tween-80 91 % of control | dose: 400.0 mg/kg/injection, schedule: Q04DX003 (ip), vehicle: saline with Tween-80 90 % of control

COC(=O)C(C)CC(C)(C=O)OC (configuration not stated)
inactive: [2] 93 % of control | [4] 89 % of control | [6] 89 % of control

Nc1nc2c(c(=O)[nH]1)N1CN(c3ccc(C(=O)NC(CCC(=O)O)C(=O)O)cc3)CCC1CN2 (configuration not stated)
inactive: dose: 1.0 mg/kg/injection, schedule: Q01DX009 (ip), vehicle: saline 94 % of control | dose: 2.0 mg/kg/injection, schedule: Q01DX009 (ip), vehicle: saline 100 % of control | dose: 4.0 mg/kg/injection, schedule: Q01DX009 (ip), vehicle: saline 89 % of control | dose: 4.0 mg/kg/injection, schedule: Q04DX003 (ip), vehicle: saline 94 % of control | dose: 8.0 mg/kg/injection, schedule: Q01DX009 (ip), vehicle: saline 100 % of control | dose: 8.0 mg/kg/injection, schedule: Q04DX003 (ip), vehicle: saline 109 % of control | dose: 16.0 mg/kg/injection, schedule: Q01DX009 (ip), vehicle: saline 94 % of control | dose: 16.0 mg/kg/injection, schedule: Q04DX003 (ip), vehicle: saline 87 % of control | dose: 32.0 mg/kg/injection, schedule: Q04DX003 (ip), vehicle: saline 101 % of control | dose: 64.0 mg/kg/injection, schedule: Q04DX003 (ip), vehicle: saline 95 % of control

CS(=O)c1cc2c(cc1[N+](=O)[O-])C(=O)c1ccccc1-2 (configuration not stated)
inactive: dose: 20.0 mg/kg/injection, schedule: Q01DX009 (ip), vehicle: Klucel (hydroxypropylcellulose) (HPC) 107 % of control | dose: 40.0 mg/kg/injection, schedule: Q01DX009 (ip), vehicle: Klucel (hydroxypropylcellulose) (HPC) 117 % of control | dose: 50.0 mg/kg/injection, schedule: Q04DX003 (ip), vehicle: Klucel (hydroxypropylcellulose) (HPC) 97 % of control | [10] 95 % of control | [11] 93 % of control

CCOC(=O)c1cc(C(=O)OC)[nH]c(=O)c1C#N
inactive: [10] 93 % of control | [11] 92 % of control | [12] 92 % of control | [13] 92 % of control | [14] 90 % of control | [15] 88 % of control

CN(N=Nc1ccc(C(=N)N)cc1)C1CCCCC1
inactive: dose: 9.5 mg/kg/injection, schedule: Q01DX001 (ip), vehicle: saline 95 % of control | dose: 19.0 mg/kg/injection, schedule: Q01DX001 (ip), vehicle: saline 98 % of control | dose: 38.0 mg/kg/injection, schedule: Q01DX001 (ip), vehicle: saline 95 % of control

O=P(c1ccccc1)(N1CCCC1)N1CCCC1
inactive: [2] 95 % of control | [4] 92 % of control

C=CCOc1ccn(C)c(=O)n1
inactive: [1] 98 % of control | [2] 108 % of control | [3] 101 % of control | [4] 97 % of control | [5] 98 % of control | [6] 111 % of control

CCCN(CCC)[N+](=O)[O-]
inactive: dose: 100.0 mg/kg/injection, schedule: Q01DX001 (ip), vehicle: other 98 % of control | dose: 100.0 mg/kg/injection, schedule: Q04DX003 (ip), vehicle: other 104 % of control | dose: 200.0 mg/kg/injection, schedule: Q01DX001 (ip), vehicle: other 93 % of control | dose: 200.0 mg/kg/injection, schedule: Q04DX003 (ip), vehicle: other 101 % of control | dose: 400.0 mg/kg/injection, schedule: Q01DX001 (ip), vehicle: other 97 % of control | dose: 400.0 mg/kg/injection, schedule: Q04DX003 (ip), vehicle: other 98 % of control

CC(=O)Nc1ccc(Cc2ccc(NC(C)=O)cc2N)c(N)c1
inactive: dose: 50.0 mg/kg/injection, schedule: Q01DX001 (ip), vehicle: saline 96 % of control | dose: 100.0 mg/kg/injection, schedule: Q01DX001 (ip), vehicle: saline 98 % of control | dose: 200.0 mg/kg/injection, schedule: Q01DX001 (ip), vehicle: saline 104 % of control | dose: 400.0 mg/kg/injection, schedule: Q01DX001 (ip), vehicle: saline 92 % of control

CC12CC3(C)CC(Cl)(C1)CC(Cl)(C2)C3
inactive: [7] 90 % of control | [8] 102 % of control | [9] 119 % of control

CN(C)C(C)(C)CCCNc1ccnc2cc(Cl)ccc12
inactive: dose: 75.0 mg/kg/injection, schedule: Q01DX001 (ip), vehicle: carboxymethylcellulose (CMC) 100 % of control | dose: 150.0 mg/kg/injection, schedule: Q01DX001 (ip), vehicle: carboxymethylcellulose (CMC) 100 % of control
